From ChEMBL document CHEMBL3137667, “[Drug-induced liver injury; fourteenth updated edition of the bibliographic database of liver injuries and related drugs]” (Gastroenterol Clin Biol, 2004)

Legend:
[1] = human
[2] = human, serum, 4383 h
[3] = human; remark: listed apart in the source
[4] = human; remark: listed apart in the source
[5] = human, serum
[6] = human; remark: listed apart in the source
[7] = Highest frequency of acute liver toxicity observed during clinical trials, expressed as a percentage. [column '% AIGUE' in source]; settings: human
[8] = human; remark: listed apart in the source
[9] = human; remark: listed apart in the source
[10] = human; remark: listed apart in the source
[11] = human; remark: listed apart in the source
[12] = human, serum; remark: listed apart in the source
[13] = Highest frequency of moderate liver toxicity observed during clinical trials, expressed as a percentage. [column '% BIOL' in source]; settings: human
[14] = human; remark: listed apart in the source
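For Hepatotoxicity (association with vascular disease) in this document: count of indexed literature references reporting vascular liver injury in humans, e.g. peliosis hepatitis, hepatic veno-occlusive disease or Budd-Chiari syndrome.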
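For Hepatotoxicity (benign tumour) in this document: value is a count of indexed literature references citing a benign tumour confirmed by histopathology.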
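For Hepatotoxicity (choleostasis) in this document: human cholestatic liver injury, shown by histopathology or by peak ALT or AST elevation over alkaline phosphatase ratio below 2, value counts indexed literature reports.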
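For Hepatotoxicity (chronic liver disease) in this document: chronic liver injury confirmed by histopathology or persistently raised serum aminotransferase activity beyond 6 months, value given as the count of indexed literature references.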
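For Hepatotoxicity (cirrhosis) in this document: value is a count of indexed literature references reporting cirrhosis confirmed by histopathology.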
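For Hepatotoxicity (cytolytic) in this document: human cytolytic liver injury, shown by histopathology or by a ratio above 5 of peak ALT or AST elevation to alkaline phosphatase elevation, value counts indexed references.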
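For Hepatotoxicity (granulomatous hepatitis) in this document: value is a count of indexed literature references reporting granulomatous liver disease confirmed by histopathology.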
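For Hepatotoxicity (malignant tumour) in this document: malignant tumour confirmed by histopathology, value gives the count of indexed literature references reporting it.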
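For Hepatotoxicity (severe hepatitis) in this document: human clinical data: severe hepatitis, meaning potentially life-threatening liver failure or clinically observed cases, the value counts how many indexed literature references report it.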
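For Hepatotoxicity (steatosis) in this document: steatosis confirmed by histopathology, value is the count of indexed references.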

CO[C@@H]1[C@H](OC(=O)/C=C/C=C/C=C/C=C/C(=O)O)CC[C@]2(CO2)[C@H]1[C@@]1(C)O[C@@H]1CC=C(C)C [FUMAGILLIN]
2: Hepatotoxicity (moderate) [5]
0: Hepatotoxicity (steatosis) [1] | Hepatotoxicity (chronic liver disease) [2] | Hepatotoxicity (benign tumour) [3] | Hepatotoxicity (malignant tumour) [4] | Hepatotoxicity (severe hepatitis) [6] | Hepatotoxicity (granulomatous hepatitis) [8] | Hepatotoxicity (association with vascular disease) [9] | Hepatotoxicity (choleostasis) [10] | Hepatotoxicity (cirrhosis) [11]
16.7%: Hepatotoxicity (moderate) [13]
1: Hepatotoxicity (acute) [12] | Hepatotoxicity (cytolytic) [14]
3.4%: Hepatotoxicity (acute) [7]

CCOC(=O)[C@H](CCc1ccccc1)N[C@@H](C)C(=O)N1[C@H](C(=O)O)C[C@@H]2CCC[C@@H]21
3: Hepatotoxicity (moderate) [5]
0: Hepatotoxicity (steatosis) [1] | Hepatotoxicity (chronic liver disease) [2] | Hepatotoxicity (benign tumour) [3] | Hepatotoxicity (malignant tumour) [4] | Hepatotoxicity (severe hepatitis) [6] | Hepatotoxicity (granulomatous hepatitis) [8] | Hepatotoxicity (association with vascular disease) [9] | Hepatotoxicity (choleostasis) [10] | Hepatotoxicity (cirrhosis) [11] | Hepatotoxicity (cytolytic) [14]
0%: Hepatotoxicity (acute) [7]
1.3%: Hepatotoxicity (moderate) [13]
1: Hepatotoxicity (acute) [12]

CO/N=C(\C(=O)N[C@@H]1C(=O)N2C(C(=O)O)=C(C)CS[C@H]12)c1csc(N)n1
0%: Hepatotoxicity (acute) [7]
23.1%: Hepatotoxicity (moderate) [13]
0: Hepatotoxicity (steatosis) [1] | Hepatotoxicity (chronic liver disease) [2] | Hepatotoxicity (benign tumour) [3] | Hepatotoxicity (malignant tumour) [4] | Hepatotoxicity (severe hepatitis) [6] | Hepatotoxicity (granulomatous hepatitis) [8] | Hepatotoxicity (association with vascular disease) [9] | Hepatotoxicity (choleostasis) [10] | Hepatotoxicity (cirrhosis) [11] | Hepatotoxicity (acute) [12] | Hepatotoxicity (cytolytic) [14]
30: Hepatotoxicity (moderate) [5]

CN(C)CCN1C(=O)c2cccc3cc(N)cc(c23)C1=O [AMONAFIDE]
44%: Hepatotoxicity (moderate) [13]
0: Hepatotoxicity (steatosis) [1] | Hepatotoxicity (chronic liver disease) [2] | Hepatotoxicity (benign tumour) [3] | Hepatotoxicity (malignant tumour) [4] | Hepatotoxicity (severe hepatitis) [6] | Hepatotoxicity (granulomatous hepatitis) [8] | Hepatotoxicity (association with vascular disease) [9] | Hepatotoxicity (choleostasis) [10] | Hepatotoxicity (cirrhosis) [11] | Hepatotoxicity (acute) [12] | Hepatotoxicity (cytolytic) [14]
0%: Hepatotoxicity (acute) [7]
5: Hepatotoxicity (moderate) [5]

CN1CCN(C2=Nc3cc(F)ccc3Cc3ccccc32)CC1 [FLUPERLAPINE]
4: Hepatotoxicity (moderate) [5]
23%: Hepatotoxicity (moderate) [13]
0: Hepatotoxicity (steatosis) [1] | Hepatotoxicity (chronic liver disease) [2] | Hepatotoxicity (benign tumour) [3] | Hepatotoxicity (malignant tumour) [4] | Hepatotoxicity (severe hepatitis) [6] | Hepatotoxicity (granulomatous hepatitis) [8] | Hepatotoxicity (association with vascular disease) [9] | Hepatotoxicity (choleostasis) [10] | Hepatotoxicity (cirrhosis) [11] | Hepatotoxicity (acute) [12] | Hepatotoxicity (cytolytic) [14]
0%: Hepatotoxicity (acute) [7]

COCC1=C(C(=O)OC(C)OC(=O)OC(C)C)N2C(=O)[C@@H](NC(=O)/C(=N\OC)c3csc(N)n3)[C@H]2SC1 (stereo partly drawn) [CEFPODOXIME PROXETIL]
7.1%: Hepatotoxicity (moderate) [13]
0: Hepatotoxicity (steatosis) [1] | Hepatotoxicity (chronic liver disease) [2] | Hepatotoxicity (benign tumour) [3] | Hepatotoxicity (malignant tumour) [4] | Hepatotoxicity (severe hepatitis) [6] | Hepatotoxicity (granulomatous hepatitis) [8] | Hepatotoxicity (association with vascular disease) [9] | Hepatotoxicity (choleostasis) [10] | Hepatotoxicity (cirrhosis) [11] | Hepatotoxicity (acute) [12] | Hepatotoxicity (cytolytic) [14]
13: Hepatotoxicity (moderate) [5]
0%: Hepatotoxicity (acute) [7]

NCC[C@H](O)C(=O)N[C@@H]1C[C@H](N)[C@@H](O[C@H]2O[C@H](CN)[C@@H](O)[C@H](O)[C@H]2O)[C@H](O)[C@H]1O[C@H]1O[C@H](CO)[C@@H](O)[C@H](N)[C@H]1O [AMIKACIN]
15.3%: Hepatotoxicity (moderate) [13]
0: Hepatotoxicity (steatosis) [1] | Hepatotoxicity (chronic liver disease) [2] | Hepatotoxicity (benign tumour) [3] | Hepatotoxicity (malignant tumour) [4] | Hepatotoxicity (severe hepatitis) [6] | Hepatotoxicity (granulomatous hepatitis) [8] | Hepatotoxicity (association with vascular disease) [9] | Hepatotoxicity (choleostasis) [10] | Hepatotoxicity (cirrhosis) [11] | Hepatotoxicity (acute) [12] | Hepatotoxicity (cytolytic) [14]
0%: Hepatotoxicity (acute) [7]
6: Hepatotoxicity (moderate) [5]

N=C(N)NCCCCCCC(=O)NC(O)C(=O)NCCCCNCCCN (stereo not drawn)
0: Hepatotoxicity (steatosis) [1] | Hepatotoxicity (chronic liver disease) [2] | Hepatotoxicity (benign tumour) [3] | Hepatotoxicity (malignant tumour) [4] | Hepatotoxicity (severe hepatitis) [6] | Hepatotoxicity (granulomatous hepatitis) [8] | Hepatotoxicity (association with vascular disease) [9] | Hepatotoxicity (choleostasis) [10] | Hepatotoxicity (cirrhosis) [11] | Hepatotoxicity (acute) [12] | Hepatotoxicity (cytolytic) [14]
3.6%: Hepatotoxicity (moderate) [13]
0%: Hepatotoxicity (acute) [7]
1: Hepatotoxicity (moderate) [5]

C[C@@H](O)[C@H]1C(=O)N2C(C(=O)O)=C([C@H]3CCCO3)S[C@H]12 [FAROPENEM]
39: Hepatotoxicity (moderate) [5]
20%: Hepatotoxicity (moderate) [13]
0%: Hepatotoxicity (acute) [7]
0: Hepatotoxicity (steatosis) [1] | Hepatotoxicity (chronic liver disease) [2] | Hepatotoxicity (benign tumour) [3] | Hepatotoxicity (malignant tumour) [4] | Hepatotoxicity (severe hepatitis) [6] | Hepatotoxicity (granulomatous hepatitis) [8] | Hepatotoxicity (association with vascular disease) [9] | Hepatotoxicity (choleostasis) [10] | Hepatotoxicity (cirrhosis) [11] | Hepatotoxicity (acute) [12] | Hepatotoxicity (cytolytic) [14]

O=C(O)CN1C(=O)c2cccc3cccc(c23)C1=O [ALRESTATIN]
0: Hepatotoxicity (steatosis) [1] | Hepatotoxicity (chronic liver disease) [2] | Hepatotoxicity (benign tumour) [3] | Hepatotoxicity (malignant tumour) [4] | Hepatotoxicity (severe hepatitis) [6] | Hepatotoxicity (granulomatous hepatitis) [8] | Hepatotoxicity (association with vascular disease) [9] | Hepatotoxicity (choleostasis) [10] | Hepatotoxicity (cirrhosis) [11] | Hepatotoxicity (acute) [12] | Hepatotoxicity (cytolytic) [14]
0%: Hepatotoxicity (acute) [7]
2: Hepatotoxicity (moderate) [5]
11.1%: Hepatotoxicity (moderate) [13]

CO[C@@H]1O[C@H](CO)[C@H](O)[C@H](O[C@@H]2O[C@@H](C(=O)O)[C@@H](OC)[C@H](O)[C@H]2O)[C@H]1NC(C)=O
1: Hepatotoxicity (moderate) [5]
0: Hepatotoxicity (steatosis) [1] | Hepatotoxicity (chronic liver disease) [2] | Hepatotoxicity (benign tumour) [3] | Hepatotoxicity (malignant tumour) [4] | Hepatotoxicity (severe hepatitis) [6] | Hepatotoxicity (granulomatous hepatitis) [8] | Hepatotoxicity (association with vascular disease) [9] | Hepatotoxicity (choleostasis) [10] | Hepatotoxicity (cirrhosis) [11] | Hepatotoxicity (acute) [12] | Hepatotoxicity (cytolytic) [14]
0%: Hepatotoxicity (acute) [7] | Hepatotoxicity (moderate) [13]

Cc1c(F)c(N2CCNC(C)C2)cc2c1c(=O)c(C(=O)O)cn2C1CC1 (stereo not drawn) [GREPAFLOXACIN]
22: Hepatotoxicity (moderate) [5]
0: Hepatotoxicity (steatosis) [1] | Hepatotoxicity (chronic liver disease) [2] | Hepatotoxicity (benign tumour) [3] | Hepatotoxicity (malignant tumour) [4] | Hepatotoxicity (severe hepatitis) ([6]; Liver) | Hepatotoxicity (granulomatous hepatitis) ([8]; Liver) | Hepatotoxicity (association with vascular disease) [9] | Hepatotoxicity (choleostasis) ([10]; Liver) | Hepatotoxicity (cirrhosis) [11] | Hepatotoxicity (acute) [12] | Hepatotoxicity (cytolytic) ([14]; Liver)
14.3%: Hepatotoxicity (moderate) ([13]; Liver)
0%: Hepatotoxicity (acute) ([7]; Liver)
